Where “and” joins values, the source holds several entries; their conditions need not be identical. Identical values can stand only once. Counter-ions that a name gives are not always drawn.

Tested on in the first data set: not given
Conditions: not given
The molecule `CNCc1cccc2c1CN(C)CC2c1ccccc1` (stereo not drawn) showed a melting point of 278 to 282 °C. Molecule `Cc1ccc2c(c1F)CN(C)CC2c1ccccc1` (stereo not drawn) (as salt: hydrochloride) displayed a melting point of 215 to 216 °C. In the case of `CN1Cc2c(CO)cccc2C(c2ccccc2)C1` (stereo not drawn), the melting point fell in the range of 144 to 146 °C. On to `CN1Cc2cc(OCc3ccccc3)ccc2C(c2ccccc2)C1` (stereo not drawn), for which the melting point fell in the range of 155 to 156 °C.

For `Cc1ccc2c(c1O)CN(C)CC2c1ccccc1` (stereo not drawn), the melting point was in the range of 260 to 261 °C. In the case of `CNCc1ccc2c(c1F)CN(C)CC2c1ccccc1` (stereo not drawn) (as salt: HCl), the melting point was in the range of 185 to 205 °C.

With `CN1Cc2cc(OC(F)(F)F)ccc2C(c2ccccc2)C1` (stereo not drawn), the melting point was 150 to 151 °C (dec.).

As for `CN1Cc2cc(CO)ccc2C(c2ccccc2)C1` (stereo not drawn) (as salt: HCl), the melting point was 237 to 240 °C (dec.). For the molecule `Cc1cc(F)c2c(c1)C(C)N(C)C(F)C2c1ccccc1` (stereo not drawn) (as salt: HCl), the melting point was 194 to 197 °C (dec.).

Take `CN1Cc2cc(Oc3ccccc3)ccc2C(c2ccccc2)C1` (stereo not drawn): the melting point is 175 to 176 °C (dec.). `FCc1ccc2c(c1CF)CN(CF)CC2c1ccccc1` (stereo not drawn) displayed a melting point of 108 to 113 °C. `Cc1c(F)ccc2c1CN(C)CC2c1ccccc1` (stereo not drawn): the melting point fell in the range of 185 to 186 °C. For the molecule `CN1Cc2ccccc2C(c2cc(F)cc(F)c2)C1` (stereo not drawn) (as salt: HCl), the melting point was 230 to 233 °C and 230 to 235 °C. Same read-out and setting: as for `COc1c(C)ccc2c1CN(C)CC2c1ccccc1` (stereo not drawn), the figure is 130 to 131 °C; as for `Cc1ccc2c(c1)C(C)N(C)CC2c1ccccc1` (stereo not drawn), 87 to 89 °C. For the molecule `Cc1ccc2c(c1)CN(C)CC2c1ccc(F)c(C)c1` (stereo not drawn), the melting point is 174 to 175 °C.

`CN1Cc2cc(C(F)(F)F)ccc2C(c2ccccc2)C1` (stereo not drawn) came in with a melting point of 257 to 275 °C.

In the next data set the test system is dopamine transporter protein over the norepinephrine transporter protein. As to conditions: selectivity for dopamine transporter protein over norepinephrine transporter protein; cited from earlier work.
Take `COC(=O)C(c1ccccc1)C1CCCCN1` (stereo not drawn) [Methylphenidate]: the “DAT/NET Ki ratio” value is 0.1.

(Values after US20060111396A1, “4-Phenyl substituted tetrahydroisoquinolines and use thereof to block reuptake of norepinephrine, dopamine and serotonin” (AMR Technology, Inc., priority 2004, published 2006).)
